According to US10646595B2, “Porphyrin compounds and their use as MRI contrast agents” (THE GOVERNING COUNCIL OF THE UNIVERSITY OF TORONTO, priority 2013, dated 2020):
Where two headings read alike, the source gives them in different places.

Assays:
[1] = NMRD profiles, field-dependent T1 relaxivity, field cycling NMR relaxometer 0 to 1 T; format: physicochemical; conditions: for T1 relaxivity per Mn(III) or Gd(III), NMRD comparison: fields above ~0.2 T, compared among MnTPPS, MnTCP, (MnTPPS3)2 and Gd-DTPA
Experimental: T1 relaxivity values were measured per Mn(III) or Gd(III) up to 1 T.

[2] = T1 and T2 relaxivities and phantom images at 3 T on clinical MRI scanner; format: physicochemical; conditions: for r1 (T1 relaxivity): clinical MRI scanner, inversion-recovery spin-echo, 25° C. per FIG. 3
Experimental: (A) A schematic diagram of how the solutions are placed. (B) The corresponding phantom images produced by the 3 T scanner.
Relaxivities of MnPs at 3 T were measured on a clinical MRI scanner (Philips Achieva). Each of the four CAs were prepared in a series of increasing concentrations, 0, 0.05, 0.1, 0.2 and 0.5 mM, and imaged using an inversion-recovery spin-echo pulse sequence with varied inversion times TI and a multi-echo spin-echo sequence with varied echo times TE. […] The r1 values in Table 1 were derived by calculating T1 relaxation times from the inversion-recovery images and then linearly fitting the T1 relaxation rates to obtain the relaxivity r1. T2 relaxivities of the MnPs were also calculated and are listed in […]

[3] = In vivo T1-weighted MRI in rats on 3T clinical scanner after intravenous injection; conditions: 0.05 mmol Mn/kg i.v.
Text: (§1) MnPs MnTCP and (MnTPPS3)2 were administrated in rats and submitted for MRI studies on a 3T clinical scanner (Philips Achieva), with MnTPPS as a reference, and found to be efficient T1 CAs for in vivo applications, MnTCP and (MnTPPS3)2. A relatively low dose, 0.05 mmol Mn/kg (typical dose for clinical Gd-based CAs is ˜0.1 mmol Gd/kg) was chosen based on the in vitro relaxivity values described above.
(§2) The desired rapid clearance of MnTCP via renal filtration was further confirmed by urine sample analysis. The characteristic reddish color of MnPs was clearly visible by eye in the urine samples. The concentrations of MnPs can be accurately quantified by both UV-vis and Mn atomic absorption (Mn AA) spectroscopic analyses. Very high concentrations of MnP were detected in urine 60 minutes (11.7 μM) after injection. […] Moreover, a significant amount of MnTPPS (1.12 μM) could still be detected in urine 24 hours post-injection. […] The exclusion of the renal metabolic pathway for (MnTPPS3)2 was further confirmed by urine sample analysis.

[4] = Urine sample analysis by UV-vis and Mn atomic absorption after injection in rats; format: in vivo; conditions: 0.05 mmol Mn/kg i.v.
Text: as §1, §2

[5] = 37° C., cited from earlier work

Molecule | field of relaxivity peak ([1]; NMRD profile) [T] | T1 relaxivity per Mn(III) or Gd(III), NMRD comparison [1] | signal intensity on T1 weighted phantom images ([2]; 25° C., samples at the same concentration) | r1 (T1 relaxivity) [2] [mM⁻¹ s⁻¹] | enhancement in the blood vessels and in the heart ([3]; 3 T MRI) | liver enhancement ([3]; 3 T MRI) | bladder enhancement ([3]; over the three days of the experimental period) | MnP signal in urine by Mn-AA or UV-vis ([4]; over the 72 hour post-injection period) | T1 relaxivity, NMRD comparison ([1]; at clinical field strengths) | relaxivity compared with Gd-DTPA [2] | time for relocation of majority of kidney enhancement into the bladder ([3]; 3 T MRI) | time to accumulation in the kidney ([3]; post injection, 3 T MRI) [min] | concentration in urine ([4]; 60 minutes after injection) [µM] | presence in urine sample ([4]; about 24 h post injection) | relaxivity plateau ([5]; up to 1 T) [mM⁻¹ s⁻¹] | field of relaxivity peak [5] [T] | persistence of kidney T1 enhancement signal ([3]; 3 T MRI) | concentration in urine ([4]; 24 hours post-injection) [µM]
O=S(=O)([O-])c1ccc(C2=C3C=CC4=[N+]3[Mn]35[n]6c2ccc6C(c2ccc(S(=O)(=O)[O-])cc2)=C2C=CC(=[N+]23)C(c2ccc(S(=O)(=O)[O-])cc2)=c2ccc([n]25)=C4c2ccc(-c3ccc(C4=C5C=CC6=[N+]5[Mn]57[n]8c4ccc8C(c4ccc(S(=O)(=O)[O-])cc4)=C4C=CC(=[N+]45)C(c4ccc(S(=O)(=O)[O-])cc4)=c4ccc([n]47)=C6c4ccc(S(=O)(=O)[O-])cc4)cc3)cc2)cc1 (centres unmarked) [(MnTPPS3)2] | ~1 | highest relaxivity per Mn | highest signal intensity | 14.1 | relatively long-lasting enhancement | significant liver enhancement | no bladder enhancement was detected | No MnP signal was found | – | – | – | – | – | – | – | – | – | –
O=C(O)c1c2nc(c(C(=O)O)c3ccc([n-]3)c(C(=O)O)c3nc(c(C(=O)O)c4ccc1[n-]4)C=C3)C=C2.[Cl-].[Mn+3] [MnTCP, [5,10,15,20-tetrakis(carboxy)porphyrinato]manganese(III) Chloride] | – | substantially higher than Gd-DTPA | – | 7.90 | – | – | – | – | lower relaxivity than MnTPPS | significantly higher relaxivity than Gd-DTPA | within an hour | ≤ 10 | 11.7 | Absence | – | – | – | –
MnTPPS [reference compound] | – | – | – | 8.83 | – | clear liver enhancement | – | – | – | – | – | – | 4.41 | – | > 10 | 0.2 | still visible in the image 1 day post-injection | 1.12
